Measurements: ChEMBL document CHEMBL4340550, “Structure based designing of triazolopyrimidone-based reversible inhibitors for kinases involved in NSCLC” (Bioorg Med Chem Lett, 2019)

Tests used:
[1] = biological target: Hepatocyte growth factor receptor (Homo sapiens, UniProt P08581); assay: Inhibition of human recombinant His-tagged cMET expressed in baculovirus expression system reduction in phosphorylation using tyrosine 6 peptide as substrate after 60 mins FRET based Z'-LYTE assay
[2] = tested on: A-431; assay: Antiproliferative activity against human A431 cells assessed as reduction in cell viability after 24 hrs by MTT assay; assay type: functional, cell-based; settings: A-431, 24 h
[3] = tested on: A549; assay: cells; settings: Homo sapiens, A549, 24 h
Description: Antiproliferative activity against human A549 cells assessed as reduction in cell viability after 24 hrs by MTT assay

[4] = tested on: NCI-H460; assay: Antiproliferative activity against human H460 cells assessed as reduction in cell viability after 24 hrs by MTT assay; assay type: functional, cell-based; settings: NCI-H460, 24 h
[5] = biological target: Epidermal growth factor receptor (Homo sapiens, UniProt P00533, L858R/T790M); assay: Inhibition of human recombinant GST-tagged EGFR L858R/T790M mutant expressed in baculovirus expression system reduction in phosphorylation using tyrosine 4 peptide as substrate after 60 mins FRET based Z'-LYTE assay
[6] = biological target: Epidermal growth factor receptor (Homo sapiens, UniProt P00533, L858R); assay: Inhibition of human recombinant GST-tagged EGFR L858R mutant expressed in baculovirus expression system reduction in phosphorylation using tyrosine 4 peptide as substrate after 60 mins FRET based Z'-LYTE assay
[7] = tested on: A-431; assay: Antiproliferative activity against human A431 cells assessed as cell viability at 40 uM after 48 hrs by MTT assay relative to control; assay type: functional; settings: A-431, 48 h, read-out: Activity
[8] = tested on: A549; assay: Antiproliferative activity against human A549 cells assessed as cell viability at 30 uM after 48 hrs by MTT assay relative to control; assay type: functional; settings: A549, 48 h, read-out: Activity
[9] = tested on: A-431; assay: Antiproliferative activity against human A431 cells assessed as cell viability at 30 uM after 48 hrs by MTT assay relative to control; assay type: functional; settings: A-431, 48 h, read-out: Activity
[10] = tested on: NCI-H460; assay: Antiproliferative activity against human H460 cells assessed as cell viability at 10 uM after 48 hrs by MTT assay relative to control; assay type: functional; settings: NCI-H460, 48 h, read-out: Activity
[11] = tested on: NCI-H460; assay: Antiproliferative activity against human H460 cells assessed as cell viability at 40 uM after 48 hrs by MTT assay relative to control; assay type: functional; settings: NCI-H460, 48 h, read-out: Activity
[12] = tested on: A549; assay: Antiproliferative activity against human A549 cells assessed as cell viability at 20 uM after 48 hrs by MTT assay relative to control; assay type: functional; settings: A549, 48 h, read-out: Activity
[13] = tested on: A549; assay: Antiproliferative activity against human A549 cells assessed as cell viability at 40 uM after 48 hrs by MTT assay relative to control; assay type: functional; settings: A549, 48 h, read-out: Activity
[14] = tested on: A-431; assay: Antiproliferative activity against human A431 cells assessed as cell viability at 10 uM after 48 hrs by MTT assay relative to control; assay type: functional; settings: A-431, 48 h, read-out: Activity
[15] = tested on: A-431; assay: Antiproliferative activity against human A431 cells assessed as cell viability at 20 uM after 48 hrs by MTT assay relative to control; assay type: functional; settings: A-431, 48 h, read-out: Activity
[16] = tested on: A549; assay: Antiproliferative activity against human A549 cells assessed as cell viability at 10 uM after 48 hrs by MTT assay relative to control; assay type: functional; settings: A549, 48 h, read-out: Activity
[17] = tested on: NCI-H460; assay: Antiproliferative activity against human H460 cells assessed as cell viability at 20 uM after 48 hrs by MTT assay relative to control; assay type: functional; settings: NCI-H460, 48 h, read-out: Activity
[18] = tested on: NCI-H460; assay: Antiproliferative activity against human H460 cells assessed as cell viability at 30 uM after 48 hrs by MTT assay relative to control; assay type: functional; settings: NCI-H460, 48 h, read-out: Activity

Hepatocyte growth factor receptor, sequence (P08581 whole entry): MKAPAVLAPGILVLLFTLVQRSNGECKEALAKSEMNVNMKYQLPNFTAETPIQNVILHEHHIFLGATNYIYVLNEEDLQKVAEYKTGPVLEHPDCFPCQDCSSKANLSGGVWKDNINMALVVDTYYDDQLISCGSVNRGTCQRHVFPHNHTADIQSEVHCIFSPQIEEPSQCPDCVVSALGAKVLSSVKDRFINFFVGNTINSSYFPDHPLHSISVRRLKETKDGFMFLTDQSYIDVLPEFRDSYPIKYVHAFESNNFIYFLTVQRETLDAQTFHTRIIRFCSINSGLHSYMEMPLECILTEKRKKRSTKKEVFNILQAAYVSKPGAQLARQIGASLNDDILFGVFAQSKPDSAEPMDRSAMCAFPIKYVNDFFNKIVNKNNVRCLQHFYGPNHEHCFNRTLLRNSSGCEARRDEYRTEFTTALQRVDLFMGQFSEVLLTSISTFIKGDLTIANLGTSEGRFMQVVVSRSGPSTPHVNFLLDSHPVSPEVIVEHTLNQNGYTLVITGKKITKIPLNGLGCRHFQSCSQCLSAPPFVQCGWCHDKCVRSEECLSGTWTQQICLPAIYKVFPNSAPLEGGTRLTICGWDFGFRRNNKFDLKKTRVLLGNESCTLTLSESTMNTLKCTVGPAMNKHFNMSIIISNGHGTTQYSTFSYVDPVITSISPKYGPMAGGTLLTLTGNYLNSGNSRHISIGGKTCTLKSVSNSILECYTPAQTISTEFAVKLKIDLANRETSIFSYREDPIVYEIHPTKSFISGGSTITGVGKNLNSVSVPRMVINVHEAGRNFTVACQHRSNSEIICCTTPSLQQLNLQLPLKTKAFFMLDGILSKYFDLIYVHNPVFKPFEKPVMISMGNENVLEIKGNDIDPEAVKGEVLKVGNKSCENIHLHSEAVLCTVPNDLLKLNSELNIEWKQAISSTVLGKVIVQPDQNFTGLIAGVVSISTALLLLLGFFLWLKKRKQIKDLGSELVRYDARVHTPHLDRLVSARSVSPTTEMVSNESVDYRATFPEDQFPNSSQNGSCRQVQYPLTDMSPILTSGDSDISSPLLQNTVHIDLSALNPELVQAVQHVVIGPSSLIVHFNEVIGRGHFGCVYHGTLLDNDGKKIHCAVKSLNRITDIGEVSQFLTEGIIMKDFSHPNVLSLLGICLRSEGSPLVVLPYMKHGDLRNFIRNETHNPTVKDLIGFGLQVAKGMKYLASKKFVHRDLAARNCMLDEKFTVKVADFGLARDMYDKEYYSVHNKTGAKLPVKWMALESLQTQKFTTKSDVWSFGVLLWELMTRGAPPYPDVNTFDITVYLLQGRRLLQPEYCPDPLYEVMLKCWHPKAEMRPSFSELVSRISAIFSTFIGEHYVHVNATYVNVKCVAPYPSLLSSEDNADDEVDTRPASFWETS
Epidermal growth factor receptor (Homo sapiens, UniProt P00533, L858R/T790M), sequence (P00533 25-1210 T790M/L858R limits assumed): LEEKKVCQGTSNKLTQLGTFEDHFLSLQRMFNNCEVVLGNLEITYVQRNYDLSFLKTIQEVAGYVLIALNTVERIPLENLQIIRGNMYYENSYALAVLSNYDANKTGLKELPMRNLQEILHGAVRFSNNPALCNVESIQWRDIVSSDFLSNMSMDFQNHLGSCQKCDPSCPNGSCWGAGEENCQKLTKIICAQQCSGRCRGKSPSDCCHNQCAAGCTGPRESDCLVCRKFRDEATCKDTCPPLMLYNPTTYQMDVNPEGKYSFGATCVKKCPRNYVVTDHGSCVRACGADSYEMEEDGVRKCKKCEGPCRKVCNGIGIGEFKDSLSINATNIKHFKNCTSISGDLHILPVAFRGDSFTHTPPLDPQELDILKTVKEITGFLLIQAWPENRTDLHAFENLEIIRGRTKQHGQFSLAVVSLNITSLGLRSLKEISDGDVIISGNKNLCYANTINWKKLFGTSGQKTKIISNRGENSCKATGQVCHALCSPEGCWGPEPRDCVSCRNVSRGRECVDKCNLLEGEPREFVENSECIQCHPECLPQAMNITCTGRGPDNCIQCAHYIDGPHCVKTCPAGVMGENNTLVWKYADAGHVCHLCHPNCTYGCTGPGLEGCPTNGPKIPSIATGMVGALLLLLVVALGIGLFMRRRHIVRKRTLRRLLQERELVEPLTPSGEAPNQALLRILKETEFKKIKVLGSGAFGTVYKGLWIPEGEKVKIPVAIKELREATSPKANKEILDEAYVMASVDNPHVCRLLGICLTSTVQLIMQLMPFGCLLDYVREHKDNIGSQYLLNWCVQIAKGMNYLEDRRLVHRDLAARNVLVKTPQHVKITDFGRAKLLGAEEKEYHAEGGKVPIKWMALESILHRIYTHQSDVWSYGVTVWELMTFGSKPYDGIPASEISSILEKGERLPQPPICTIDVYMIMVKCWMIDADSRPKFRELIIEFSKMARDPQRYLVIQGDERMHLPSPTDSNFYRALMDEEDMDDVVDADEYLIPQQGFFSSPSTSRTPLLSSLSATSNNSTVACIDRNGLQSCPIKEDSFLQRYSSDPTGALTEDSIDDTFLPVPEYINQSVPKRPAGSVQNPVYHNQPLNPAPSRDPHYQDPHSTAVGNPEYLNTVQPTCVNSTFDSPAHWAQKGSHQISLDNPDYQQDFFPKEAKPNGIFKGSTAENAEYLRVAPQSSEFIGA
Epidermal growth factor receptor (Homo sapiens, UniProt P00533, L858R), sequence (P00533 25-1210 L858R limits assumed): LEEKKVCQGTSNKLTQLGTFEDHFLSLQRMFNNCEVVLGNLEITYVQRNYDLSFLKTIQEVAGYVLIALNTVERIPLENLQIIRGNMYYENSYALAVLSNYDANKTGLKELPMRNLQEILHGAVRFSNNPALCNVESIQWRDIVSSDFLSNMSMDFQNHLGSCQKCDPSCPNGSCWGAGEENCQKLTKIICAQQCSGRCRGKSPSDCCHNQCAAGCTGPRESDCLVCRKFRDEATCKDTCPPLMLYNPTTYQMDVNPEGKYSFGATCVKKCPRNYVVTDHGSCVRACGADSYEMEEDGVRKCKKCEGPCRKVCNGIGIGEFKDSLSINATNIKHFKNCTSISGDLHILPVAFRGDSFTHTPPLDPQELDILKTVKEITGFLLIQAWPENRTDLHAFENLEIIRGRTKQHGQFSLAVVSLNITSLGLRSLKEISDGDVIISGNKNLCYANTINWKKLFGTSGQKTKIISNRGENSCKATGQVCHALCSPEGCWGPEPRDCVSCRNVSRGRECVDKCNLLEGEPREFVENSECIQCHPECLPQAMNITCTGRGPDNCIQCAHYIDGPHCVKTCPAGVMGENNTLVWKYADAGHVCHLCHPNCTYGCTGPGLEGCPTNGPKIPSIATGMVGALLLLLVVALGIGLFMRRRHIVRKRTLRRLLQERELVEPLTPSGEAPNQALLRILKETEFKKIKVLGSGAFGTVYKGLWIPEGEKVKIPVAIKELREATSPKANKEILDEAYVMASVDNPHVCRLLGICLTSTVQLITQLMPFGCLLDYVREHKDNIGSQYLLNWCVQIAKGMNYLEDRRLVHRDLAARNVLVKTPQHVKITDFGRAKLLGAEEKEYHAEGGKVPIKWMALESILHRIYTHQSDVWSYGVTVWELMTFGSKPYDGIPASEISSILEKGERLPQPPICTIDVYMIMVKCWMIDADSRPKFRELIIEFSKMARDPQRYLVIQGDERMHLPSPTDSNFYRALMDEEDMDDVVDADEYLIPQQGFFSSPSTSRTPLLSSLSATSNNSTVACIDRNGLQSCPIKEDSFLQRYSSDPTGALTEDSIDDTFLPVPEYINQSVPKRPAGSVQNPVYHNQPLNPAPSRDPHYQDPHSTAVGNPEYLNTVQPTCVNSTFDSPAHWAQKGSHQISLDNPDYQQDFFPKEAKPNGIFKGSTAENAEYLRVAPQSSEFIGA

SMILES	IC50 [1] [nM]	IC50 [2] [nM]	IC50 [3] [nM]	IC50 [4] [nM]	IC50 [5] [nM]	IC50 [6] [nM]	viability at 40 µM [7] [%]	viability at 30 µM [8] [%]	viability at 30 µM [9] [%]	viability at 10 µM [10] [%]	viability at 40 µM [11] [%]	viability at 20 µM [12] [%]	viability at 40 µM [13] [%]	viability at 10 µM [14] [%]	viability at 20 µM [15] [%]	viability at 10 µM [16] [%]	viability at 20 µM [17] [%]	viability at 30 µM [18] [%]
Cc1cc(=O)n2nc(SCc3ccc(C(C)(C)C)cc3)nc2[nH]1	65	24400	60500	59000	–	–	–	–	–	–	–	–	–	–	–	–	–	–
Cc1cc(=O)n2nc(SCc3ccc([N+](=O)[O-])cc3)nc2[nH]1	104	> 40000	> 80000	> 80000	76	107	–	–	–	–	–	–	–	–	–	–	–	–
Cc1cc(=O)n2nc(SCc3cccc(C(F)(F)F)c3)nc2[nH]1	94	21800	72000	65800	84	81	–	–	–	–	–	–	–	–	–	–	–	–
Cc1cc(=O)n2nc(SCc3cccc([N+](=O)[O-])c3)nc2[nH]1	89	> 40000	> 80000	> 80000	77	157	–	–	–	–	–	–	–	–	–	–	–	–
Cc1cc(=O)n2nc(SCc3ccc(C(C)C)cc3)nc2[nH]1	50	17300	35200	31800	62	80	17.7	65.3	38.8	86.7	41.8	79.6	43.4	71.7	50.7	89.7	71.6	56
Cc1ccc(CSc2nc3[nH]c(C)cc(=O)n3n2)cc1	79	15800	50100	49900	168	311	32.5	–	41.7	–	–	–	–	75.8	62.5	–	–	–
Cc1cc(O)n2nc(SCc3cccc(Cl)c3)nc2n1	92	> 40000	> 80000	> 80000	59	131	–	–	–	–	–	–	–	–	–	–	–	–
Cc1cc(=O)n2nc(SCc3ccc(F)cc3)nc2[nH]1	203	> 40000	> 80000	> 80000	56	52	–	–	–	–	–	–	–	–	–	–	–	–
Cc1cc(=O)n2nc(SCc3ccc(Cl)cc3)nc2[nH]1	113	32500	61400	56500	182	54	–	–	–	–	–	–	–	–	–	–	–	–
Cc1cc(=O)n2nc(SCc3ccc(Cl)cc3Cl)nc2[nH]1	42	18200	34900	27200	141	141	–	61.2	–	83.5	34.9	77	46.8	–	–	88.3	65.7	51
